The target in data set [1] is T1, Horseradish peroxidase (HRPO) (Armoracia rusticana, UniProt P00433).
T1 construct: purchased TOYOBO
T1 sequence (P00433 31-338 limits assumed): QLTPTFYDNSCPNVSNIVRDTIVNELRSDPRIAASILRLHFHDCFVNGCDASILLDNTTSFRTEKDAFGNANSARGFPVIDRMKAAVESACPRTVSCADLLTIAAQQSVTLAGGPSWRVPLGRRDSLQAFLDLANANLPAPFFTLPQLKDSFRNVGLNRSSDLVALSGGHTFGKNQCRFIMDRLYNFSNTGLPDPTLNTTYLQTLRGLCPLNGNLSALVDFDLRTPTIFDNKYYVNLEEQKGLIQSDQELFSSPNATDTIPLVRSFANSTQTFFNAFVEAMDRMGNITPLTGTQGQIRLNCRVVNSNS
As to the kind of experiment: Electron transfer activity 2: HRPO-hydrogen peroxide-compound, current at -80 mV or -150 mV. It is filed as biochemical. The note with it: -80 mV or -150 mV vs Ag/AgCl, pH 6.0. As to the method: Measurement of electron transfer activities of TCPD, THEPD, TDHPD, HTEPD, N,N-BHDPD, N,N'-BHPD, N,N'-BHDPD, and p-phenylenediamine derivatives having substituted amino group by reacting p-phenylenediamine with propyleneoxide--2
Horseradish peroxidase (HRPO, manufactured by TOYOBO) was dissolved in 0.1M phosphate buffer (pH 6.0) containing 0.1M NaCl to prepare 0M and 5.0×10^-7 M HRPO solutions. Also, hydrogen peroxide (manufactured by Wako Pure Chemical Industries) was dissolved in the same buffer to prepare a 1.0×10^-1 M solution. In the same manner, each of the TCPD, THEPD, TDHPD, HTEPD, N,N-BHDPD, N,N'-BHPD, N,N'-BHDPD, and p-phenylenediamine derivatives having substituted amino group by reacting p-phenylenediamine with propyleneoxide obtained in Synthesis Examples 1 to 9 was dissolved in the same buffer to prepare a 5.0×10^-3 M solution.
Each of these solutions was mixed in 0.1M phosphate buffer (pH 6.0) containing 0.1M NaCl in the following mixing ratio just before the measurement to prepare solutions of the following compositions A and B, and electric current was measured continuously in the presence (composition A) or absence (composition B) of HRPO.
Using the same apparatus of Test Example 2, electric current was measured in the presence (composition A) or absence (composition B) of HRPO for 5 or 10 minutes after application of potential of -80 mV (vs Ag/AgCl, the same shall apply hereinafter) in the case of TEPD, THEPD, and TDHPD, or -150 mV in the case of TCPD, HTEPD, N,N-BHDPD, N,N'-BHPD, N,N'-BHDPD, and p-phenylenediamine derivatives having substituted amino group by reacting p-phenylenediamine with propyleneoxide.

A short description of data set [2]: Measurement of vapor pressures (gas flow method). It is filed as physicochemical. The note with it: for vapor pressure: gas flow method. The procedure:
Measurement of vapor pressures of p-phenylenediamine(PPD), N,N,N',N'-tetramethyl-p-phenylenediamine (TMPD), TEPD, TCPD, THEPD and TDHPD
The PPD(manufactured by Wakoh Junyaku K.K), TMPD (manufactured by Tokyo Kasei K.K), further, TEPD, TCPD, THEPD and TDHPO obtained in the course of the procedures of Synthesis Examples 1 to 4 were checked for their vapor pressures.
Vapor densities (amount of evaporation/volume) of the solid samples (PPD, TMPD, TEPD, TCPD, THEPD and TDHPD) were measured by contacting each sample heated to a predetermined temperature with a stream of carrier gas (nitrogen) and saturating the sample with vapor, and vapor pressures of TEPD and THEPD were calculated from the data on an assumption that the vapor follows the law of ideal gas (gas flow method). The vapor density was calculated by measuring evaporation rate (loss rate) of each sample using an electric balance, and the carrier gas flow rate using a flow meter.
The vapor pressure was calculated from the vapor density based on the following formula.
In the above formula, P represents vapor pressure (mmHg), k represents evaporation rate (mg/min), v represents carrier gas flow rate (ml/min), k/v represents vapor density (mg/ml), M represents molecular weight of each sample, π represents pressure of the system (mmHg) and V represents molar volume of carrier gas (l/mol).

Molecules are shown by their SMILES.

For `CCN(CC)c1ccc(N(CC)CC)cc1.Cl.Cl` [TEPD, N,N,N',N'-tetraethyl-p-phenylenediamine dihydrochloride, reference compound], the “function as electron mediator between HRPO and the electrode” value in data set [1] was “function as a reversible electron mediator between HRPO and the electrode”. Also, the vapor pressure in data set [2] (at 25° C.) is reported as 4.2×10^-4 mmHg.

In the case of `Cl.Cl.OCCN(CCO)c1ccc(N(CCO)CCO)cc1` [THEPD, N,N,N',N'-tetrakis-(2'-hydroxyethyl)-p-phenylenediamine dihydrochloride], the “function as electron mediator between HRPO and the electrode” value in data set [1] was “function as a reversible electron mediator between HRPO and the electrode”. Further, in data set [2] (at 25° C.), the “vapor pressure lower than that of TEPD” value is on record as “about 300 times” and the vapor pressure is given as 1.3×10^-6 mmHg. In addition, the “property in drying (freeze-drying, vacuum drying, air-drying) and stability of dried states” value in data set [2] (compared with PPD, TMPD and TEPD, concluded from vapor pressures) was “superior to those of PPD, TMPD and TEPD”.

Source of the values: patent US5609749A, “Electrochemical assay method with novel p-phenylenediamine compound” (Mochida Pharmaceutical Co., Ltd., priority 1993, dated 1997).
